Results: publication PMC12169104, “Towards the development of supramolecular self-associating amphiphiles as antibiofilm agents against Pseudomonas aeruginosa and Candida albicans biofilms” (Journal of Materials Chemistry. B, 2025)
Read-outs that look alike come from different tables or passages of the source.

Columns and labels:
[1] = Bi-directional permeability in Caco-2 cell line; format: in vitro ADME; details: human; for recovery at 2 h, 5 µM: Caco-2, pH 7.4, SSA recovered from the assay after 2 hours
Procedure: Bi-directional Permeability in Caco-2 Cell Line:
The bi-directional permeability in Caco-2 cell lines was determined by seeding cells onto an HTS Transwell plate. Cells were cultivated for 14-18 days in a cell culture incubator at 37°C, 5% CO2, 95% relative humidity. Cell culture medium was replaced every other day. To assess monolayer integrity the transepithelial electrical resistance (TEER) across the monolayer was measured using Millicell Epithelial volt-ohm meter prior to assay and Lucifer yellow (LY) fluorescence measurement post- […]
Test compound was prepared in DMSO and diluted in Hank’s Balanced Saline Solution (HBSS, pH 7.4) to a final concentration of 5 µM. Compound was added to the donor compartment of the transwell plate for both apical to basolateral (A>B) and basolateral to apical (B>A) measurements, with blank HBSS being added to the receiver compartment. The transwell plate was then incubated at 37°C, 5% […]
Samples were shaken at T=0 and T=2 hours to determine the concentration of initial donor sample, and the concentration of receiver and donor wells post-incubation, respectively. The samples were quenched with solvent containing internal standard (IS). The supernatant was mixed with an appropriate volume of ultra-pure water before LC-MS/MS analysis. […]
coupled to a Sciex 5500+ (AB Inc., Illinois). Separation of compounds was achieved using an XSelect HSS T3 XP (2.5µm,2.1x50mm) (Waters Ltd., Wilmslow) column at a temperature of 40°C. A binary mobile phase gradient at a flow rate of 0.7 mL/min was used. Initial LC conditions comprised of 95% solvent A (0.1% formic acid in water) and 5% solvent B (0.1% formic acid in acetonitrile). This was ramped to 95% solvent B at 1.2 minutes, held for 0.4 minutes and then immediately returned to initial conditions. Sample analysis was by electrospray ionisation combined with multiple reaction monitoring in positive ion mode. The ionspray voltage was 5500V.

[2] = Metabolic stability in liver microsomes; format: in vitro ADME, mouse
Procedure: (§1) Section S5: In vitro and in vivo studies
(§2) These studies were performed by Contract Research Organisation (CRO) Pharmaron. The methodology provided within the ESI is published within the express permission of this organisation.
(§3) The percentage of a compound recovered during the analysis process should be 100 %; any deviation from this value indicates experimental limitations such as unintended potential non-specific binding events to experimental equipment, solubility issues, etc.
(§4) In vitro Absorption, Distribution and Metabolism studies methods: […]
(§5) The ionisation
(§6) Kinetic Solubility Determination in PBS pH 7.4:
(§7) The stock solutions of test and control compounds were prepared in DMSO at 10 mM. From this a 300 µM solution was prepared in duplicate in 100 mM Phosphate Buffered Saline (PBS, pH 7.4 ± 0.1). These solutions were then shaken at 1100rpm for 2 hours at 25°C. […]
(§8) Metabolic Stability in Rat, Mouse and Human Liver Microsomes :
(§9) The metabolic stability of compounds at a concentration of 1 µM, in rat, mouse and human liver microsomes (BD Gentest, Franklin Lakes NJ) was measured following incubation with hepatic microsomes (0.5 mg of protein / mL) in the presence and absence of cofa ctor (NADPH) at 37 °C.
(§10) Aliquots of each incubation were removed at 0.5, 5, 15, 30 and 60 minutes. The reaction was stopped by the addition of cold acetonitrile containing analytical internal standard (IS). […]

[3] = Metabolic stability in liver microsomes; format: in vitro ADME, human
Procedure: as §1, §2, §3, §4, §5, §6, §7, §8, §9, §10

- efflux ratio at 2 h, 5 µM ([1]; Caco-2, pH 7.4): > 73.9
- recovery at 2 h, 5 µM ([1]; read-out: % Recovery (A-B)): < 98.4%
- recovery at 2 h, 5 µM ([1]; read-out: % Recovery (B-A)): 82.6%
- Papp A→B at 2 h, 5 µM ([1]; Caco-2, pH 7.4, apical to basolateral, 5 µM, 2 hours): < 0.06 ×10⁻⁶ cm/s
- Papp B→A at 2 h, 5 µM ([1]; Caco-2, pH 7.4, basolateral to apical, 5 µM, 2 hours): 4.24 ×10⁻⁶ cm/s
- half-life at 1 µM ([2]; liver microsomes, mouse microsomes, 1 µM, read-out: In vitro T1/2): > 3.08 h
- Hepatic Extraction Ratio (ER) ([2]; mouse): < 0.26
- Hepatic Extraction Ratio (ER) ([3]; human): < 0.27
- half-life at 1 µM ([3]; liver microsomes, human microsomes, 1 µM, read-out: In vitro T1/2): > 3.08 h
SMILES: O=C(O)CNc1c(Nc2ccc(C(F)(F)F)cc2)c(=O)c1=O [SSA 5]
